Data published in US20140212401A1, “USE OF SYNTHETIC AND BIOLOGICAL FUNGICIDES IN COMBINATION FOR CONTROLLING HARMFUL FUNGI” (Bayer CropScience LP, priority 2009, published 2014).

How the values were obtained:
Cercospora beticola = experiment: Example 8: inoculated sugar beets, spray treatments, visual % infection of plant
Method: (§1) Evaluation was carried out by visually determining the infected leaf areas in %.
Sugar beets were cultivated and grown under standard conditions with adequate supply of water and nutrients. The test plants were inoculated with an aqueous spore suspension of Cercospora beticola. […] For comparison, a part of the plants was sprayed with pyraclostrobin alone (used as the commercial product HEADLINE®, BASF; dose rate per treatment: 0.6 L/ha; diluted with water to 400 L/ha). […] 46 and 53 days after the first treatment (7 or 14 days after last treatment), the extent of the development of the disease was determined visually in % infection of the plant.

[1] = tested on: Pseudoperonospora cubensis; experiment: Example 4: inoculated cucurbits, spray treatments, visual % infection of leaves; format: in vivo; details: 28 days after first treatment
From the text: The results are compiled in Table 4 below. [table]

Erysiphe necator = experiment: Example 29: inoculated grapes, spray treatments, visual % infection of clusters; details: Metrafenone (VIVANDO 0.27 L/ha) applications ABCD
Method: Grapes were grown under standard conditions with adequate supply of water and nutrients. The test plants were inoculated with an aqueous spore suspension of Erysiphe necator. […] For comparison, a part of the plants was sprayed with metrafenone alone (used as the commercial product VIVANDO®, BASF; dose rate per treatment: 0.27 L/ha; diluted with water to 800 L/ha). […] 11 days after the 6th application, the extent of the development of the disease was determined visually in % infection of the clusters.

Uncinula necator [2] = experiment: Example 2: inoculated vine grapes, spray treatments, visual % infection of racemes
Method: Vine grapes were grown under standard conditions with adequate supply of water and nutrients. The test plants were inoculated with an aqueous spore suspension of Uncinula necator. […] For comparison, a part of the plants was sprayed with metrafenone alone (used as the commercial product VIVANDO®, BASF; dose rate per treatment: 0.02 Vol.-%; diluted with water to 800 L/ha). […] 85 and 91 days after the first treatment (15 or 21 days after last treatment), the extent of the development of the disease was determined visually in % infection of the racemes.

Uncinula necator [3] = experiment: Example 13: inoculated grapes, spray treatments, visual % infection of raceme and leaves; format: in vivo
From the text: The results are compiled in Table 13 below.

Sphaerotheca fuliginea [4] = experiment: Example 27: inoculated cucumbers, spray treatments, visual % infection of leaves; details: 38 days after first treatment; Metrafenone (VIVANDO 0.3 L/ha) applications ABC
Method: as §1
Cucumbers were cultivated and grown under standard conditions with adequate supply of water and nutrients. The test plants were inoculated with an aqueous spore suspension of Sphaerotheca fuliginea. […] For comparison, a part of the plants was sprayed metrafenone alone (used as the commercial product VIVANDO®, BASF; dose rate per treatment: 0.3 L/ha; diluted with water to 500 L/ha). […] 38 days after the first treatment, the extent of the development of the disease was determined visually in % infection of the leaves.

[5] = tested on: Erysiphe necator (UNCINE); experiment: Example 15: field trial grapevine cv. Müller-Thurgau, natural infection, percent infected clusters
Method: The trial was conducted under field conditions. Established grapevine plants (cv. Müller-Thurgau) were grown under standard conditions with adequate supply of water and nutrients. The application was repeated 3 to 6 times (see below) with 14 days intervals applying single products. No other products or compounds were applied for pathogen control. […] For comparison, a part of the plants was sprayed with metrafenone alone (used as the commercial product VIVANDO®, BASF; 0.2 L/ha). […] UNCINE infection occurred naturally. Disease incidences were evaluated 6 days after 5th application (6 DAT(5)) and 15 days after 6th application (15 DAT(6)). Disease levels observed were rated in percent infected clusters in the respective plot given as % attack.

Sphaerotheca fuliginea [6] = experiment: Example 9: inoculated melons, spray treatments, visual % infection of plant
Method: as §1
Melons were cultivated and grown under standard conditions with adequate supply of water and nutrients. The test plants were inoculated with an aqueous spore suspension of Sphaerotheca fuliginea. […] For comparison, a part of the plants was sprayed with metrafenone alone (used as the commercial product VIVANDO®, BASF; dose rate per treatment: 0.2 L/ha; diluted with water to 500 L/ha). […] 27 and 34 days after the first treatment (1 or 8 days after last treatment), the extent of the development of the disease was determined visually in % infection of the plant.

Leveillula taurica = experiment: Example 10: inoculated peppers, spray treatments, visual % infection of leaves; details: Metrafenone (VIVANDO 0.2 L/ha) applications AB
Method: as §1
The test plants were inoculated with an aqueous spore suspension of Leveillula taurica. […] For comparison, a part of the plants was sprayed with metrafenone alone (used as the commercial product VIVANDO®, BASF; dose rate per treatment: 0.2 L/ha; diluted with water to 800 L/ha). […] 35 and 42 days after the first treatment (7 or 14 days after last treatment), the extent of the development of the disease was determined visually in % infection of the leaves.

Sphaerotheca fuliginea [7] = experiment: Example 12: inoculated cucurbits, spray treatments, visual % infection of upperside of leaves; format: in vivo; details: 38 days after first treatment, Metrafenone (VIVANDO 0.2 L/ha) applications ABC
From the text: The results are compiled in Table 12 below.

Plasmopara viticola = experiment: Example 3: inoculated vine grapes, spray treatments, visual % infection of racemes and leaves, severity and frequency; details: Dithianon (DELAN WG 525 g/ha) applications ABCDEFGHI
Method: as §1
The test plants were inoculated with an aqueous spore suspension of Plasmopara viticola. […] Another part was sprayed both with dithianon and B. subtilis strain QST713. 67 and 73 days after the first treatment (4 or 10 days after last treatment), the extent of the development of the disease was determined visually in % infection of the racemes. 73 days after the first treatment (10 days after last treatment), the severity and the frequency of the infection on the racemes were determined visually [%]. 87 days after the first treatment (14 days after last treatment), the extent of the development of the disease was determined visually in % infection of the leaves.

[8] = tested on: Venturia inequalis (VENTIN); experiment: Example 18: field trial apple cv. Rubinette, natural infection, percent infected leaf area
Method: The trial was conducted under field conditions. Established apple plants (cv. Rubinette) were grown under standard conditions with adequate supply of water and nutrients. The application was repeated 6 to 10 times (see below) with 7-14 days intervals applying single products or product mixtures. No other products or compounds were applied for pathogen control. […] VENTIN infection occurred naturally. Disease incidences were evaluated 6 days after 10th application (6 DAT(10)). Disease levels observed were rated in percent infected leaf area in the respective plot given as % attack.

[9] = tested on: Botrytis cinirea (BOTRCI); experiment: Example 16: field trial grapevine cv. Müller-Thurgau, natural infection, percent infected clusters
Method: The trial was conducted under field conditions. Established grapevine plants (cv. Müller-Thurgau) were grown under standard conditions with adequate supply of water and nutrients. The application was repeated 4 to 9 times (see below) with 7-14 days intervals applying single products. No other products or compounds were applied for pathogen control. […] For comparison, a part of the plants was sprayed with dithianon alone (used as the commercial product DELAN®, Bayer CropScience; 0.75 kg/ha). […] BOTRCI infection occurred naturally. Disease incidences were evaluated 21 days after 9th application (21 DAT(9)). Disease levels observed were rated in percent infected clusters in the respective plot given as % attack.

[10] = tested on: Plasmopara viticola (PLASVI); experiment: Example 17: field trial grapevine cv. Müller-Thurgau, natural infection, percent infected leaf area and clusters; details: for Attacked Leaf Area/Clusters 10 DAA(7): percent infected clusters; for Attacked Leaf Area/Clusters 4 DAA(9): percent infected leaf area
Method: The trial was conducted under field conditions. Established grapevine plants (cv. Müller-Thurgau) were grown under standard conditions with adequate supply of water and nutrients.
The application was repeated 4 to 9 times (see below) with 7-14 days intervals applying single products. No other products or compounds were applied for pathogen control. […] For comparison, a part of the plants was sprayed with dithianon alone (used as the commercial product DELAN®, Bayer CropScience; 0.75 kg/ha). […] Another part was sprayed both with dithianon and B. subtilis strain QST713. PLASVI infection occurred naturally. Disease incidences were evaluated 10 days after 7th application (10 DAA(7)) and 4 days after 9th application (4 DAA(9)). Disease levels observed were rated in percent infected leaf area (4 DAA(9)) and in percent infected clusters (10 DAA(7)) in the respective plot given as % attack.

Monilinia laxa = experiment: Example 7: inoculated stonefruit, spray treatments, visual % infection of plant
Method: as §1
Stonefruit was grown under standard conditions with adequate supply of water and nutrients. The test plants were inoculated with an aqueous spore suspension of Monilinia laxa. […] Another part was sprayed both with boscalid and B. subtilis strain QST713. 5 and 11 days after the first treatment (0 or 6 days after last treatment), the extent of the development of the disease was determined visually in % infection of the plant.

Bremia lactucae = experiment: Example 23: inoculated lettuce, spray treatments, visual % infection of plant; details: Boscalid (CANTUS 1 kg/ha) applications AB
Method: as §1
The test plants were inoculated with an aqueous spore suspension of Bremia lactucae. […] For comparison, a part of the plants was sprayed with boscalid alone (used as the commercial product CANTUS®, BASF; dose rate per treatment: 1 kg/ha; diluted with water to 500 L/ha). […] 7 days after the last treatment, the extent of the development of the disease was determined visually in % infection of the plant.

Sclerotinia sclerotiorum = experiment: Example 11: inoculated beans, spray treatments, visual % infection of plants; details: Boscalid (CANTUS 1.0 kg/ha) application A
Method: as §1
Beans were cultivated and grown under standard conditions with adequate supply of water and nutrients. The test plants were inoculated with an aqueous spore suspension of Sclerotinia sclerotiorum. […] For comparison, a part of the plants was sprayed with boscalid alone (used as the commercial product CANTUS®, BASF; dose rate per treatment: 1.0 kg/ha; diluted with water to 500 L/ha). […] 28 and 35 days after the first treatment (0 or 7 days after last treatment), the extent of the development of the disease was determined visually in % infection of the plants.

Botrytis cinerea = experiment: Example 1: inoculated vine grapes cv. Riesling, spray treatments, visual % infection of racemes
Method: as §1
Vine grapes of the cultivar “Riesling” were grown under standard conditions with adequate supply of water and nutrients. The test plants were inoculated with an aqueous spore suspension of Botrytis cinerea. […] For comparison, a part of the plants was sprayed with boscalid alone (used as the commercial product CANTUS®, BASF; dose rate per treatment: 1.2 kg/ha; diluted with water to 800 L/ha). […] 95 and 100 days after the first treatment (25 or 30 days after last treatment), the extent of the development of the disease was determined visually in % infection of the racemes.

[11] = Pyraclostrobin (HEADLINE 0.6 L/ha) application A
[12] = Pyraclostrobin (HEADLINE 0.6 L/ha) applications AB
[13] = Pyraclostrobin (HEADLINE 0.6 L/ha) applications ABC
[14] = Metrafenone (VIVANDO 0.02 Vol.-%) applications ABC
[15] = Metrafenone (VIVANDO 0.02 Vol.-%) applications ABCD
[16] = Metrafenone (VIVANDO 0.2 L/ha) applications ABCDE
[17] = Metrafenone (VIVANDO 0.2 L/ha) applications ABCDEFG
[18] = Metrafenone (VIVANDO 0.2 L/ha) applications ABC
[19] = Metrafenone (VIVANDO 0.2 L/ha) applications ABCDEF
[20] = Metrafenone (VIVANDO 0.2 L/ha) application A
[21] = Metrafenone (VIVANDO 0.2 L/ha) applications AB
[22] = Dithianon (DELAN 0.75 kg/ha) applications ABCD
[23] = Dithianon (DELAN 0.75 kg/ha) applications ABCDEFGHI
[24] = Boscalid application A (pyraclostrobin/boscalid mixture PRISTINE 0.66 g/ha)
[25] = Boscalid applications AB (pyraclostrobin/boscalid mixture PRISTINE 0.66 g/ha)
[26] = Boscalid (CANTUS 1.2 kg/ha) applications AB
[27] = Boscalid (CANTUS 1.2 kg/ha) applications ABC

COC(=O)N(OC)c1ccccc1COc1ccn(-c2ccc(Cl)cc2)n1 [Pyraclostrobin, pyraclostrobin]
Attack on Plant 46 DAT (Cercospora beticola; [11]): 11%
Attack on Plant 53 DAT (Cercospora beticola; [11]): 17%
Attack on Plant 46 DAT (Cercospora beticola; [12]): 4.7%
Attack on Plant 53 DAT (Cercospora beticola; [12]): 5.7%
Attack on Plant 46 DAT (Cercospora beticola; [13]): 2.7%
Attack on Plant 53 DAT (Cercospora beticola; [13]): 3.7%

CCCCCCCCc1c(CC)nc2ncnn2c1N [BAS 650, 5-ethyl-6-octyl-[1,2,4]triazolo[1,5-a]pyrimidine-7-ylamine]
Attack on Leaves ([1]; BAS 650 (BAS 650 00F 1.2 L/ha) applications AB): 7%
Attack on Leaves ([1]; BAS 650 (BAS 650 00F 1.2 L/ha) applications ABC): 6.2%

COc1cc(C)c(C(=O)c2c(OC)ccc(Br)c2C)c(OC)c1OC [Metrafenone, metrafenone]
Attack on clusters 11 DAA (6) (Erysiphe necator): 25%
Attack on Raceme 85 DAT (Uncinula necator [2]; [14]): 26%
Attack on Raceme 91 DAT (Uncinula necator [2]; [14]): 32%
Attack on Raceme 85 DAT (Uncinula necator [2]; [15]): 11%
Attack on Raceme 91 DAT (Uncinula necator [2]; [15]): 14%
Attack on Leaves 76 DAT (Uncinula necator [3]; [16]): 4.3%
Attack on Leaves 90 DAT (Uncinula necator [3]; [16]): 35%
Attack on Raceme 76 DAT (Uncinula necator [3]; [16]): 8.3%
Attack on Raceme 90 DAT (Uncinula necator [3]; [16]): 43%
Attack on Leaves 76 DAT (Uncinula necator [3]; [17]): 3.0%
Attack on Leaves 90 DAT (Uncinula necator [3]; [17]): 13%
Attack on Raceme 76 DAT (Uncinula necator [3]; [17]): 6.0%
Attack on Raceme 90 DAT (Uncinula necator [3]; [17]): 22%
Attack on Leaves (Sphaerotheca fuliginea [4]): 15%
Attacked Clusters 6 DAT(5) [5, 18]: 7.9%
Attacked Clusters 15 DAT(6) [5, 18]: 26%
Attacked Clusters 6 DAT(5) [5, 19]: 2.2%
Attacked Clusters 15 DAT(6) [5, 19]: 4.2%
Attack on Plant 27 DAT (Sphaerotheca fuliginea [6]; [20]): 24%
Attack on Plant 34 DAT (Sphaerotheca fuliginea [6]; [20]): 32%
Attack on Plant 27 DAT (Sphaerotheca fuliginea [6]; [21]): 9.2%
Attack on Plant 34 DAT (Sphaerotheca fuliginea [6]; [21]): 14%
Attack on Plant 35 DAT (Leveillula taurica): 22%
Attack on Plant 42 DAT (Leveillula taurica): 43%
Attack on Leaves (Sphaerotheca fuliginea [7]): 50%

N#Cc1sc2c(=O)c3ccccc3c(=O)c=2sc1C#N [Dithianon, dithianon]
Attack on Leaves 87 DAT (Plasmopara viticola): 25%
Attack on Raceme 67 DAT (Plasmopara viticola): 34%
Attack on Raceme 73 DAT (Plasmopara viticola): 48%
Frequency 73 DAT (Plasmopara viticola; infection on racemes): 37%
Severity 73 DAT (Plasmopara viticola; infection on racemes): 7.5%
Attacked Leaf Area 6 DAT10 ([8]; Dithianon (DELAN 0.75 kg/ha) applications ABCDEF): 12%
Attacked Leaf Area 6 DAT10 ([8]; Dithianon (DELAN 0.75 kg/ha) applications ABCDEFGHIJ): 7.3%
Attacked Clusters 21 DAT(9) [9, 22]: 12%
Attacked Clusters 21 DAT(9) [9, 23]: 15%
Attacked Leaf Area/Clusters 10 DAA(7) [10, 22]: 30%
Attacked Leaf Area/Clusters 10 DAA(7) [10, 23]: 25%
Attacked Leaf Area/Clusters 4 DAA(9) [10, 22]: 11%
Attacked Leaf Area/Clusters 4 DAA(9) [10, 23]: 7.5%

O=C(Nc1ccccc1-c1ccc(Cl)cc1)c1cccnc1Cl [Boscalid, boscalid]
Attack on Plant 5 DAT (Monilinia laxa; [24]): 1.8%
Attack on Plant 11 DAT (Monilinia laxa; [24]): 36%
Attack on Plant 5 DAT (Monilinia laxa; [25]): 1.8%
Attack on Plant 11 DAT (Monilinia laxa; [25]): 29%
Attack on Plant 7 DALT (Bremia lactucae): 14%
Attack on Plant 28 DAT (Sclerotinia sclerotiorum): 30%
Attack on Plant 35 DAT (Sclerotinia sclerotiorum): 53%
Attack on Raceme 95 DAT (Botrytis cinerea; [26]): 35%
Attack on Raceme 100 DAT (Botrytis cinerea; [26]): 44%
Attack on Raceme 95 DAT (Botrytis cinerea; [27]): 28%
Attack on Raceme 100 DAT (Botrytis cinerea; [27]): 36%
